Consider three molecules from patent publication US20010041716A1, “Compositions and methods for locally treating inflammatory diseases” (priority 1999, published 2001).

The structures appear in SMILES notation. In brackets after ≈: the same amount, converted by molar mass. Read-outs that look alike come from different tables or passages of the source. Marks after values point to notes of the source that are not given here.

The conditions of data set [1]: 25° C.
The conditions of data set [2]: n-octanol / phosphate buffer (pH 6.4).
The conditions of data set [3]: for Lag time TL = SD / Permeability coefficient P ± SD × 10^−3: pH 6. As for the experimental part:
Skin Preparation and Permeation: The human cadaver skin used in the permeation studies was obtained from the Anatomical Donation Program at the University of Michigan. Vertical Franz diffusion cells with a 4 ml capacity receptor compartment and a 0.8 cm^2 diffusion area were used in the permeation studies. The epidermal layer of the skin was mounted carefully onto the lower half of the cells of the difflusion apparatus with the stratum corneum facing up. The receptor compartments were filled with isotonic phosphate buffer (pH 6.4). The temperature of the cell system was maintained at 32° C. by circulating water from a constant temperature water bath through the jacket of the lower compartment of each cell assembly. To begin an experiment, the donor compartment was charged with 300 μl of fresh prepared saturated solution of the drug and covered immediately with Parafilm to prevent any significant evaporation of volatile components of the applied medium during the absorption experiment. At predetermined times, samples were taken and were directly assayed by HPLC to determine the drug concentration of each. Care was taken to maintain skin conditions.
The permeability coefficient for a given run was calculated from Fick's law of diffuision: [formula]
dC/dt is the steady-state slope of a plot of the amount of substance which had penetrated the skin against time in terms of jig/h. It was determined by taking the ratio of the total amount permeated in an interval of time to the length of the time interval.
A is the difflusional area, which was 0.8 cm^2.
ΔC is the concentration differential existing across the membrane. This was effectively equal to the saturation concentration in the donor phase (μg/ml) as, through total exchange sampling, a near zero receiver concentration (sink condition) was closely approximated. AC is, in effect, the thermodynamic force driving mass transfer. The maximum driving force is seen at the saturation solubility (excluding supersaturation).
VR is the volume of the receiver compartment (4 ml).
The permeation parameters (flux, J; lag time, TL and permeability coefficient, P) of thalidomide and its N-alkyl analogs from their saturated aqueous solutions (pH 6.0) and an ethanol/water/octanol vehicle are summarized in Table 4. The permeation data were plotted as the cumulative amount of drug penetrated through skin as a function of time. The steady-state flux was determined from the slope of the linear portion of the cumulative amount-time plot. The lag time (TL) was determined by extrapolating the linear portion of the curve to its intersection with the time axis. […] A bar plot of the mean steady-state flux and standard deviations (SD) for thalidomide and its N-alkyl analogs from water can be seen in FIG. 5. […] Typical cumulative amount permeated-time profiles for thalidomide and its N-alkyl analogs from the ethanol/water/octanol (Formulation C) vehicle are shown in FIG. 6.

How the values of data set [4] were obtained: Differential Thermal Analysis: The heat of fusion (ΔHf) and the entropy of fusion (ΔSf) of thalidomide and its N-alkyl analogs were determined with a Perkin-Elmer DSC7 Differential Scanning Calorimeter (DSC), which was calibrated with an indium standard.
Using this surmise, the solubility parameters for all the solutes were calculated. […] In each case the solutions are considered ideal at the peak of their parabolas.

The test system of another data set is TNFα. Particulars: PBMCs stimulated in vitro with LPS; previous studies; cited from earlier work.

For `CN1C(=O)CCC(N2C(=O)c3ccccc3C2=O)C1=O` (stereo not shown) [N-Methyl Thalidomide, N-methyl thalidomide], in data set [1], the “Solubility, Hexane ± SD” value stood at 90 ± 0 µg/mL (≈ 331 µM) and the “Solubility, Water (pH 6.4) ± SD” value is reported as 275.9 ± 6.39 μg/ml. Moreover, in data set [1] (listed as N-methyl thalidomide), the “Solubility, Water (pH 6.4) ± SD” value is on record as 276 μg/ml. Further, in data set [2], the “Koct ± SD (octanol/water partition coefficient)” value was found to be 14.1 ± 1.05. In data set [3], the Maximum steady-state flux came out at 11.47 μg/cm^2/h, the “Lag time TL = SD” value was determined as 2.8 ± 0.5 h and the “Permeability coefficient P ± SD × 10^−3” value is on record as 1.17 ± 0.22 × 10^−3 (cm/h). Besides, in data set [4], the “Activity of solid phase a2^s, ΔCp = 0” value is listed as 1.03 × 10^−1; the “Activity of solid phase a2^s, ΔCp = ΔSp” value is on record as 1.54 × 10^−1; the “Ln X2,ideal, ΔCp = 0” value is given as −2.27; the “Ln X2,ideal, ΔCp = ΔSr” value is given as −1.87. Also, in data set [4], the “Solubility parameter δ2 (Hexane), ΔCp = 0” value is 12.2 (cal/cm^3)^½ and the “Solubility parameter δ2 (Hexane), ΔCp = ΔSr” value was 12.3 (cal/cm^3)^½.
As for `CCCCCN1C(=O)CCC(N2C(=O)c3ccccc3C2=O)C1=O` (stereo not shown) [N-Pentyl Thalidomide, N-pentyl thalidomide], in data set [1], the “Solubility, Hexane ± SD” value is 220 ± 10 µg/mL (≈ 670 µM) and the “Solubility, Water (pH 6.4) ± SD” value is recorded as 57.3 ± 1.46 μg/ml. Moreover, in data set [2], the “Koct ± SD (octanol/water partition coefficient)” value is 129 ± 1.05. For the same molecule, in data set [3], the “Lag time TL = SD” value worked out at 3 ± 1.6 h and the “Permeability coefficient P ± SD × 10^−3” value is 19.68 ± 6.31 × 10^−3 (cm/h). For the same molecule, in data set [4], the “Activity of solid phase a2^s, ΔCp = 0” value was 1.29 × 10^−1; the “Activity of solid phase a2^s, ΔCp = ΔSp” value is 1.64 × 10^−1; the “Ln X2,ideal, ΔCp = 0” value was −2.05; the “Ln X2,ideal, ΔCp = ΔSr” value is recorded as −1.81. Further, in data set [4], the “Solubility parameter δ2 (Hexane), ΔCp = 0” value was 11.2 (cal/cm^3)^½ and the “Solubility parameter δ2 (Hexane), ΔCp = ΔSr” value is 11.2 (cal/cm^3)^½.
As for `O=C1CCC(N2C(=O)c3ccccc3C2=O)C(=O)N1` (stereo not shown) [Thalidomide, a-phthalimidoglutarimide, reference compound], in data set [1], the “Solubility, Hexane ± SD” value stood at 0.1 ± 0 µg/mL (≈ 0.387 µM) and the “Solubility, Water (pH 6.4) ± SD” value was found to be 52.1 ± 1.49 μg/ml. The “Solubility, Water (pH 6.4) ± SD” value in data set [1] (listed as thalidomide) is recorded as 52 μg/ml. In addition, the “Koct ± SD (octanol/water partition coefficient)” value in data set [2] worked out at 3.09 ± 1.03. Besides, in data set [3], the “Lag time TL = SD” value was 2.2 ± 1.4 h and the “Permeability coefficient P ± SD × 10^−3” value is recorded as <0.16 ± 0.00^b) × 10^−3 (cm/h). Further, in data set [4], the “Activity of solid phase a2^s, ΔCp = 0” value came to 1.29 ×; the “Activity of solid phase a2^s, ΔCp = ΔSp” value is 8.07 ×; the “Ln X2,ideal, ΔCp = 0” value is recorded as −6.65; the “Ln X2,ideal, ΔCp = ΔSr” value is on record as −4.82. Besides, in data set [4], the “Solubility parameter δ2 (Hexane), ΔCp = 0” value is listed as 13.2 (cal/cm^3)^½ and the “Solubility parameter δ2 (Hexane), ΔCp = ΔSr” value was 13.7 (cal/cm^3)^½. For the same molecule, in the data set with TNFα, the “Inhibition of TNFα production” value is “partially inhibit TNFα production”.
